Assay results: patent publication US12624042B2, “Compound for targeted degradation of BTK and anti-tumour use thereof” (SHANGHAI MEIZER PHARMACEUTICALS CO., LTD., priority 2020, dated 2026)
Read-outs that look alike come from different tables or passages of the source.

Legend:
[1] = Caco-2 membrane permeability and efflux test; type: in vitro ADME; settings: human; for Papp A→B at 90 min: Caco-2, A-B; for Papp A→B at 90 min / Papp B→A at 90 min: Caco-2 monolayer, 37° C.; for Papp B→A at 90 min: Caco-2, B-A; for efflux ratio at 90 min: Caco-2, read-out: Papp(B-A)/Papp(A-B)
Method: • 1) Caco-2 cells in the logarithmic growth phase were taken, digested and centrifuged and the cell concentration was adjusted to 4×10^5 cells/mL with MEM complete medium. • 2) 0.5 mL of cell suspension was added to the apical side (AP side) and 1.5 mL MEM cell complete medium was added to the basal side (BL side) of the Transwell plate, respectively. • 3) Culture in a cell constant temperature incubator, change the culture medium every two days, and change the medium every day after one week of culture. • 4) After about 21 days, the resistance value of the formed continuous monolayer film is greater than 100 Ω·cm^2, and the transport experiment is carried out within 3-5 days. • 5) The test compound solution was added to the AP side as the donor solution (Donor), and 1.5 mL of the receiver solution (Receiver) was added to the basal side (BL side). After the culture plate was placed in an incubator at 37° C. for 90 minutes, the AP side was separated from the BL side to terminate the reaction. • 6) Donor or Receiver samples were diluted with 0.4% DMSO in HBSS, and then mixed with acetonitrile. The LC conditions were as follows: mobile phase A: H2O—0.025% FA-1 mM NH4OAC, B: MeOH-0.025% FA-1 mM NH4OAC. Column: ACQUITY UPLC BEH_C18 ([…], 1.7 μm). Flow rate 0.60 mL/min. Gradient: 0.2 min 2% B, 0.6 min 98% B, 1.3 min 98% B, 1.31 min 2% B, 1.8 min stop. • 7) Calculation formula: Papp=(VA/(area×time))×([drug]receiver/([drug]donor)×dilution factor)
where VA is the volume in the receiving chamber, area is the surface area of the membrane, and time is the total transport time in seconds.
Drug molecules cross the single cell layer or via the cell gap from the apical side (AP side) to the basolateral side (BL side) of the Caco-2 monolayer are A to B, and vice versa are B to A. The efflux ratio: Papp(B−A)/Papp(A−B).

BTK protein = molecular target: T1, BTK protein (Homo sapiens, UniProt Q06187); test: Western blot assay for degradation of BTK protein in Jeko-1 cells; type: cell-based; settings: 24 hours of drug treatment, GAPDH internal reference
T1 construct: endogenous in cells; host or cells: Jeko-1
Method: (§1) The Jeko-1 cell line was cultured in RPMI-1640 medium containing 20% fetal bovine serum in an incubator at 37° C., 5% CO2, and saturated humidity. After the cells grew to the logarithmic growth phase, 5×10^6 cells per well were seeded in a 6-well culture plate, and a DMSO control group and a compound test group were set.
(§2) After 24 hours of drug treatment, the cells were collected, added pre-cooled cell lysate, and lysed on ice for 45 min. After the cells were completely lysed, they were centrifuged, and the supernatant was taken and stored in an ice bath. The protein concentration was determined by Bradford protein concentration assay kit (detergent compatible type), and protein samples were prepared. After the proteins were separated by SDS-PAGE gel electrophoresis, they were transferred to PVDF membranes by wet method and blocked with 5% BSA solution at room temperature for 1 h. Diluted rabbit anti-human BTK and GAPDH were added according to the experimental requirements, and incubated overnight at 4° C. After washing the membrane with TBST, horseradish peroxidase-labeled goat anti-rabbit IgG secondary antibody dilution was added and incubated at room temperature for 1 h. After washing the membrane with TBST, the ECL luminescent solution was added in the gel imager for development and imaging. […]

[2] = test system: TMD8 (BTK-C481S) mutant cells; test: Proliferation inhibition of TMD8 (BTK-C481S) mutant cells (CCK-8); type: cell-based; settings: Homo sapiens
Method: Cell plating: TMD8 (BTK-C481S) mutant cells in the logarithmic growth phase were taken, centrifuged, and an appropriate amount of complete medium was added to obtain a single-cell suspension. Cell counting was carried out with a hemocytometer, and a cell suspension of 1.5×10^5 cells/mL was prepared. 100 μL of cell suspension per well was inoculated in a 96-well culture plate, and cultured in a CO2 cell incubator for 24 hours.
The plates were shaken well, placed in a CO2 cell incubator, and continued to incubate for 72h.
CCK-8 detection: 72 hours after administration, 10% CCK-8 solution was added to each well. The plates were placed in a CO2 cell incubator, and incubated for 1-4 hours. The absorbance of each well was measured at 450 nm using a microplate reader.

OCI-LY10 tumor = test: Anti-tumor effect in mouse OCI-LY10 tumor model; type: in vivo; settings: SCID mice, OCI-LY10 subcutaneous, oral 100 mg/kg, twice a day, 14 days; rate=[1−(Day14−Day0)/Day0]*100%
Method: OCI-LY10 cells were cultured in RPMI-1640 medium containing 10% fetal bovine serum (FBS). Cells were cultured at 37° C. in a 5% CO2 incubator.
Cell inoculation method to establish tumor SCID mouse subcutaneous transplantation model: tumor cells in logarithmic growth phase were collected, counted and resuspended in RPMI-1640 medium. Matrigel was added at 1:1, and the concentration of cell suspension was adjusted to 4×10^7 cells/ml. Inoculate tumor cells subcutaneously on the right back of SCID mice with a 1 ml syringe, 4×10^6 cells/0.1 ml/mouse
When the average volume of animal tumors is about 140 mm^3, animals with too large tumor, too small tumor, or have irregular tumor shapes were eliminated. The tumor-bearing mice with tumor volumes ranging from 101.34 to 209.86 mm 3 were selected, and were divided into groups by random block method, respectively as model group, compound group (oral 100 mg/kg, twice a day), 7 mice in each group. The day of grouping was Day 0, and administration was started according to the body weight of the animals.
After 14 days of administration, the tumor volume was measured, and the tumor inhibition rate was calculated, and the calculation formula was as follows: Tumor inhibition rate=[1−(Day14 tumor volume−Day0 administration tumor volume)/Day0 administration tumor volume]*100%

BTK-C481S mutant protein = molecular target: T2, BTK-C481S mutant protein (Homo sapiens, UniProt Q06187, C481S); test: Western blot assay for degradation of BTK-C481S mutant protein in TMD8 (BTK-C481S) cells; type: cell-based; settings: 24 hours of drug treatment, GAPDH internal reference
T2 construct: The TMD8 (BTK-C481S) mutant cell line was cultured in RPMI-1640 medium; endogenous in cells; host or cells: TMD8 (BTK-C481S) mutant cell line
Method: as §1, with “TMD8 (BTK-C481S) mutant” for “Jeko-1”
as §2

[3] = Sample-01, read-out: Papp Sample-01
[4] = Sample-02, read-out: Papp Sample-02
[5] = mean of two samples, read-out: Papp Mean
[6] = TMD8 (BTK-C481S) mutant cells, 72h, CCK-8, read-out: IC50

T1 sequence (Q06187 whole entry): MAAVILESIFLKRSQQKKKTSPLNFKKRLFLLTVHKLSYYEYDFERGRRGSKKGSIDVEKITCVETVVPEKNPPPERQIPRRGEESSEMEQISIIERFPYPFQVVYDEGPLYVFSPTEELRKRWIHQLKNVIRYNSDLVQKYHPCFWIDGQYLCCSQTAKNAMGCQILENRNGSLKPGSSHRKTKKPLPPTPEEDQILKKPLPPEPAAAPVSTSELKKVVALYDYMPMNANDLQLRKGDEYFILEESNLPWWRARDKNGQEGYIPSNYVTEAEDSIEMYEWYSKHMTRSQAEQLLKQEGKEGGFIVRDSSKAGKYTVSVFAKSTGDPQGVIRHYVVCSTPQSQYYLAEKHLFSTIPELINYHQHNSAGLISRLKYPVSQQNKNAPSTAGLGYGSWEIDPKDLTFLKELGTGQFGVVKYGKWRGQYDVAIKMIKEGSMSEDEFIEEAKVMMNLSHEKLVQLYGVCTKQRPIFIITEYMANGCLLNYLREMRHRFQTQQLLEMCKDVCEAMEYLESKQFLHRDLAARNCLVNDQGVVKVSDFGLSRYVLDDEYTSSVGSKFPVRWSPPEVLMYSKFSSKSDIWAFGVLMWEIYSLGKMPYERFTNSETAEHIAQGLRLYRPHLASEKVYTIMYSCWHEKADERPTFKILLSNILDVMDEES
T2 sequence (Q06187 whole entry C481S): as the sequence (Q06187 whole entry) above, with C481S counted along it

SMILES	Papp A→B at 90 min [1, 3] [×10⁻⁶ cm/s]	Papp A→B at 90 min [1, 4] [×10⁻⁶ cm/s]	Papp A→B at 90 min [1, 5] [×10⁻⁶ cm/s]	Papp B→A at 90 min [1, 3] [×10⁻⁶ cm/s]	Papp B→A at 90 min [1, 4] [×10⁻⁶ cm/s]	Papp B→A at 90 min [1, 5] [×10⁻⁶ cm/s]	efflux ratio at 90 min [1]	DC50 (BTK protein) [nM]	DC50 (BTK-C481S mutant protein) [nM]	IC50 [2, 6] [nM]	Tumor inhibition rate (OCI-LY10 tumor) [%]	IC50 ([2]; TMD8, 72 h) [nM]
Nc1ncnc2c1c(-c1ccc(Oc3ccccc3)cc1)nn2C1CCN(CCOCCCCCOc2ccc3c(c2)CN(C2CCC(=O)NC2=O)C3=O)CC1 (centres unmarked) [Compound 2]	2.37	2.26	2.32	2.73	2.75	2.74	1.18	1.5	3.1	17.7	189	
Nc1ncnc2c1c(-c1ccc(Oc3ccccc3)cc1)nn2C1CCN(CCCCCOCCOc2ccc3c(c2)CN(C2CCC(=O)NC2=O)C3=O)CC1 (centres unmarked) [Compound 1]	5.55	5.16	5.35	7.18	6.99	7.09	1.32	2.3	9.9	7.1	175	
C=CC(=O)N1CCC[C@@H](n2nc(-c3ccc(Oc4ccccc4)cc3)c3c(N)ncnc32)C1 [Ibrutinib]												125

More lines, main results first:

Papp A→B at 90 min [1, 3] [×10⁻⁶ cm/s]	Papp A→B at 90 min [1, 4] [×10⁻⁶ cm/s]	Papp A→B at 90 min [1, 5] [×10⁻⁶ cm/s]	Papp B→A at 90 min [1, 3] [×10⁻⁶ cm/s]	Papp B→A at 90 min [1, 4] [×10⁻⁶ cm/s]	Papp B→A at 90 min [1, 5] [×10⁻⁶ cm/s]	efflux ratio at 90 min [1]	DC50 (BTK protein) [nM]	DC50 (BTK-C481S mutant protein) [nM]	SMILES	IC50 [2, 6] [nM]	Tumor inhibition rate (OCI-LY10 tumor) [%]	IC50 ([2]; TMD8, 72 h) [nM]
2.14	2.16	2.15	33.5	34.8	34.1	15.9			Nc1ncnc2c1c(-c1ccc(Oc3ccccc3)cc1)nn2C1CCN(CCOCCOCCNc2ccc3c(c2)C(=O)N(C2CCC(=O)NC2=O)C3=O)CC1 (centres unmarked) [Control compound 3]			
1.02	1	1.01	18.1	18.6	18.4	18.1			Nc1ncnc2c1c(-c1ccc(Oc3ccccc3)cc1)nn2C1CCCN(CCOCCOCCOCCOCCNc2cccc3c2C(=O)N(C2CCC(=O)NC2=O)C3=O)C1 (centres unmarked) [Control compound 2]			
1.07	1.04	1.05	30.2	39.4	34.8	33			Nc1ncnc2c1c(-c1ccc(Oc3ccccc3)cc1)nn2C1CCN(CCOCCOCCNc2ccc3c(c2)CN(C2CCC(=O)NC2=O)C3=O)CC1 (centres unmarked) [Control compound 1]			
